According to ChEMBL document CHEMBL1155117, “Cyclobranol: a substrate for C25-methyl sterol side chains and potent mechanism-based inactivator of plant sterol methyltransferase” (Bioorg Med Chem Lett, 2008):

What was measured:
Glycine max [1] = assay: Activity of soybean sterol C24-methyltransferase 1
Glycine max [2] = assay: Ratio of Kcat to Kinact for soybean sterol C24-methyltransferase 1
[3] = Inhibition of sunflower sterol C24-methyltransferase 1; set-up: species or system Helianthus annuus
[4] = Inhibition of soybean sterol C24-methyltransferase 1; set-up: species or system Glycine max

`CC(C)=C(C)CC[C@@H](C)[C@H]1CC[C@@]2(C)[C@@H]3CC[C@H]4C(C)(C)[C@@H](O)CC[C@@]45C[C@@]35CC[C@]12C` [CYCLOBRANOL] showed a Km (Glycine max [1]) of 37 µM, a kcat (Glycine max [1]) of 0.0001 s⁻¹ and a Ratio (Glycine max [2]) of 0.04. For the same compound, the Ki [3] was 100 µM and the Ki [4] was 25 µM.

Compound `CC(C)=CCC[C@@H](C)[C@H]1CC[C@@]2(C)[C@@H]3CC[C@H]4C(C)(C)[C@@H](O)CC[C@@]45C[C@@]35CC[C@]12C` has a Km (Glycine max [1]) of 30 µM and a kcat (Glycine max [1]) of 0.001 s⁻¹.
